For assay [1], the system named is DLD1-BRCA2−/− tumor cell line with BRCA2 protein knockout. The experiment in a line: Colony formation assay under hypoxic conditions. Format: cell-based, human. The protocol:
TH-302 is a small molecule prodrug that can be activated under hypoxic conditions to release cytotoxin, thereby killing tumor cells and tumor tissues.
The IC90 (90% inhibitory concentration) value was used to evaluate the ability of the killing effect of compound TH-302 to the cells in this colony formation assay. The specific experimental method was as follows:
a) DLD1 and DLD1-BRCA2−/−cells were cultured in RPMI medium, added with 10% FBS and 1% double antibody, and placed at 37° C.; and 5% CO2 for culturing.
a) The cells were routinely cultured until the cell saturation was 80%-90%, and when the required quantity was reached, the cells were collected.
b) The cells were resuspended with the corresponding medium and cell counts were performed to prepare a cell suspension with appropriate density.
c) The cell suspension was added to 10 cm glass dish, the cell density of DLD1-BRCA2^−/− was 3.0×10^5/dish and the cell density of DLD1 was 300/dish.
d) Cells were incubated for 2 days at 37° C., 5% CO2 in an incubator.
The compound was prepared according to the experimental requirements.
A) The cells were treated with the compound for 3 h under the condition of oxygen content <0.01% (hypoxia). […]
f) Cell clone counts were performed using Colony Counter (VWR) and IC90 values were calculated according to CalcuSyn software (http://www.biosoft.com/w/calcusyn.htm).

Assay [2] deals with HuPrime® bladder cancer BL3325 subcutaneous model (BRCA2 pathogenic mutant). The experiment in a line: In vivo pharmacodynamics of TH-302, HuPrime bladder cancer BL3325 subcutaneous model. On the set-up: species or system Balb/c nude female mice. To be noted: 36th day after initial administration; for Tumor volume (x ± S): in mm³ (unit assumed). The protocol: P Value, i.e., the statistical P measurement value. P<0.05 was defined as a significant difference.
The test was divided into the test drug Olaparib 50 mg/kg monotherapy group (Group 02), TH-302 80 mg/kg monotherapy group (Group 03), TH-302 40 mg/kg monotherapy group (Group 04), TH-302 20 mg/kg monotherapy group (Group 05), the combined administration group of TH-302 40 mg/kg and Olaparib 50 mg/kg (Group 06), and glucose injection vehicle control group (Group 01). There was a total of 6 groups and 6 mice in each group. Among them, both the vehicle control group and TH-302 were administered through tail vein, once a week for a total of 3 weeks; Olaparib was administered by gavage, once a day for a total of 30 days.

The mark [3] stands for this setting: Group 3: TH-302 80 mg/kg i.v. QW × 3.
Where [4] appears, read: Group 4: TH-302 40 mg/kg i.v. QW × 3.
Setting [5] is: Group 5: TH-302 20 mg/kg i.v. QW × 3.

Broadly, the IC90 is the concentration needed for an effect of 90%. The T/C is the result in the treated group divided by that in the control group, in per cent.

Consider `Cn1c(COP(=O)(NCCBr)NCCBr)cnc1[N+](=O)[O-]` [TH-302, Evofosfamide], for which the 90% effect concentration (IC90) in assay [1] (Homo sapiens, DLD1-BRCA2−/− cells, hypoxia (oxygen content <0.01%) 3 h, colonies after 10 days) was determined as 3.01 nM. Further, the “Fold Change” value in assay [1] (IC90 in DLD1 relative to IC90 in DLD1-BRCA2−/−, hypoxia) is 70. Moreover, in assay [2] (setting [3]), the “Relative tumor volume (x ± S)” value turned out to be 0.76 ± 20.26, the T/C is 3.95%, the TGI is on record as 96.05% and the Tumor clearance rate is reported as 1/6. In addition, in assay [2] (setting [3]), the “Tumor volume (x ± S)” value worked out at 103.73 ± 38.44. Also, in assay [2] (setting [4]), the “Relative tumor volume (x ± S)” value stood at 3.78 ± 1.60, the T/C is on record as 19.58%, the TGI is recorded as 80.42% and the Tumor clearance rate is 0/6. In assay [2] (setting [4]), the “Tumor volume (x ± S)” value is on record as 464.64 ± 168.62. Moreover, in assay [2] (setting [5]), the “Relative tumor volume (x ± S)” value is recorded as 8.08 ± 0.81, the T/C was found to be 41.84%, the TGI is 58.16% and the Tumor clearance rate is listed as 0/6. In assay [2] (setting [5]), the “Tumor volume (x ± S)” value is 1028.58 ± 111.81.
